The text below walks through data of EPA's ToxRefDB 2.

The subject of series [1] is rat. To be noted: Subchronic oral toxicity in rodents, fischer, Water, dose end: 14 week, group: systemic.
In series [2] the test system is mouse. To be noted: Subchronic oral toxicity in rodents, b6c3f1, Water, dose end: 14 week, group: systemic.
For series [3], the system named is mouse. The note with it: Carcinogenicity; b6c3f1; Oral; Feed; dose end: 103 week; group: systemic; systemic / in life observation / body weight / body weight + systemic / pathology microscopic / kidney / mineralization + systemic / ….
For series [4], the system named is mouse. The note with it: Subchronic oral toxicity in rodents, b6c3f1, Feed, dose end: 13 week, group: systemic, systemic / pathology microscopic / kidney / mineralization + systemic / in life observation / body weight / body weight gain.
The subject of series [5] is rat. To be noted: Carcinogenicity, fischer, Oral, Feed, dose end: 104 week, group: systemic.
Series [6] has as its system rat. The note with it: Subchronic oral toxicity in rodents, fischer, Feed, dose end: 13 week, group: systemic.
Series [7] relates to mouse. To be noted: Carcinogenicity; cd1; Oral; Feed; dose end: 104 week; group: systemic; systemic / in life observation / clinical signs / hyperactivity.
In series [8] the test system is dog. To be noted: Chronic toxicity, beagle, Oral, Feed, dose end: 52 week, group: systemic.
Series [9] concerns rat. To be noted: Subchronic oral toxicity in rodents, Feed, dose end: 90 day, group: systemic.
In series [10] the test system is dog. The note with it: Subchronic oral toxicity in nonrodent, beagle, Feed, dose end: 90 day, group: systemic, systemic / in life observation / clinical signs / defecation (diarrhea) + systemic / in life observation / clinical signs / emesis + ….
Series [11] deals with rat. To be noted: Developmental neurotoxicity range-finding study; sprague dawley; Oral; Feed; dose end: 21 PND; group: cannot be grouped; systemic / in life observation / body weight / body weight + systemic / in life observation / body weight / body weight gain + systemic / in….
Series [12] has as its system rat. To be noted: Combined chronic toxicity/carcinogenicity, other, Oral, Feed, dose end: 27 month, group: systemic.
Series [13] deals with rat. To be noted: Sub-acute repeat dose toxicity, other, Oral, Feed, dose end: 28 day, group: systemic.
The subject of series [14] is mouse. The note with it: Combined chronic toxicity/carcinogenicity; other; Oral; Feed; dose end: 24 month; group: systemic; systemic / organ weight / thyroid gland / absolute + systemic / organ weight / thyroid gland / relative to body weight + systemic / organ ….
Series [15] relates to rat. To be noted: Prenatal developmental toxicity study, other, Oral, Gavage/Intubation, dose end: 15 GD.
In series [16] the test system is rat. The note with it: Multigenerational reproductive toxicity study, other, Oral, Feed, dose end: 3 generation.
The subject of the next series is rabbit. The note with it: Sub-acute dermal toxicity, new zealand white, Topical, dose end: 28 day, group: systemic, systemic / in life observation / body weight / body weight + systemic / in life observation / food consumption / food consumption + systemic….
The subject of series [17] is rat. To be noted: Combined chronic toxicity/carcinogenicity, other, Oral, Feed, dose end: 27 month, group: systemic. This is another data set of the same source.
[18] abbreviates: systemic / hematology / erythrocyte (rbc) count differential / erythrocyte (rbc) + systemic / hematology / hematocrit (hct) / hematocrit (….
Where [19] appears, read: systemic / hematology / hematocrit (hct) / hematocrit (hct) + systemic / hematology / hemoglobin (hgb) / hemoglobin (hgb) + systemic / organ….
Setting [20] is: systemic / organ weight / kidney / absolute + systemic / organ weight / kidney / relative to body weight + systemic / pathology microscopic….
Setting [21] is: systemic / organ weight / liver / absolute + systemic / organ weight / liver / relative to body weight + systemic / pathology microscopic / ….
The mark [22] stands for this setting: systemic / in life observation / body weight / body weight + systemic / pathology microscopic / kidney / hyperplasia + systemic / pathology ….
The mark [23] stands for this setting: systemic / pathology microscopic / kidney / hyperplasia + systemic / pathology microscopic / urinary bladder / hyperplasia + systemic / ….
Where [24] appears, read: systemic / pathology microscopic / kidney / mineralization.
The mark [25] stands for this setting: systemic / in life observation / clinical signs / tremors + systemic / clinical chemistry / glucose / glucose + systemic / in life ….
The mark [26] stands for this setting: systemic / clinical chemistry / urea nitrogen / urea + systemic / clinical chemistry / alkaline phosphatase (alp/alk) / alkaline phosphatase….
Setting [27] is: systemic / in life observation / body weight / body weight.
The mark [28] stands for this setting: systemic / in life observation / body weight / body weight + systemic / pathology microscopic / testes / interstitial cell tumor benign + ….
The mark [29] stands for this setting: systemic / organ weight / liver / absolute + systemic / organ weight / liver / relative to brain weight.
Setting [30] is: systemic / organ weight / liver / absolute + systemic / organ weight / liver / relative to brain weight + systemic / organ weight / liver / ….
The mark [31] stands for this setting: group: developmental, developmental / developmental malformation / bone / unossified.
Setting [32] is: group: maternal, reproductive / reproductive performance / aborted / aborted + systemic / in life observation / body weight / body weight gain + systemic / ….
The mark [33] stands for this setting: group: parental, systemic / in life observation / body weight / body weight + systemic / organ weight / brain / relative to body weight.
Setting [34] is: group: parental, systemic / in life observation / body weight / body weight + systemic / pathology gross / full gross necropsy / hyperemia + systemic / ….
[35] abbreviates: group: reproductive, reproductive / reproductive performance / fertility / fertility + reproductive / reproductive performance / mating / mating + reproductive….
Where [36] appears, read: group: reproductive, reproductive / reproductive performance / mating / mating + reproductive / reproductive performance / pregnancy / pregnancy.
The mark [37] stands for this setting: systemic / in life observation / body weight / body weight + systemic / in life observation / food consumption / food consumption.
[38] abbreviates: systemic / in life observation / body weight / body weight + systemic / in life observation / food consumption / food consumption + systemic….

For `CC(O)CCl` (stereo not given) [1-Chloro-2-propanol], the figures for the LOAEL in the series with rat [1] (setting [18]) and in the series on mouse [2] (setting [20]) were 100 mg/kg/day and 340 mg/kg/day, respectively. The results for the NOAEL with rat [1] (setting [18]) and in the series on mouse [2] (setting [20]) were 35 mg/kg/day and 170 mg/kg/day, respectively. The LEL in the series on rat [1] (setting [19]) amounted to 5 mg/kg/day; in the series with mouse [2] (setting [21]), 7 mg/kg/day. Moreover, the values for the NEL with rat [1] (setting [19]) and in the series with mouse [2] (setting [21]) were < 5 mg/kg/day and < 7 mg/kg/day, respectively.
On to `NCCCCCCCCCCC(=O)O` [11-Aminoundecanoic acid], for which the LEL was determined as 1120 mg/kg/day in the series on mouse [3], 2250 mg/kg/day in the series on mouse [4], 375 mg/kg/day in the series on rat [5] (setting [23]) and 450 mg/kg/day in the series with rat [6] (setting [24]). Also, the LOAEL – broadly, the lowest dose or exposure tested at which an adverse effect was seen – in the series with mouse [3] stood at 1120 mg/kg/day; in the series with mouse [4], 2250 mg/kg/day; in the series with rat [5] (setting [22]), 750 mg/kg/day; in the series with rat [6] (systemic / pathology microscopic / kidney / hyperplasia + systemic / in life observation / body weight / body weight gain) it was 900 mg/kg/day. The NEL in the series with mouse [3] was < 1120 mg/kg/day; in the series on mouse [4], 1800 mg/kg/day; in the series on rat [5] (setting [23]) it was < 375 mg/kg/day; with rat [6] (setting [24]) it was < 450 mg/kg/day. Moreover, the no observed adverse effect level (NOAEL) – broadly, the highest dose or exposure tested at which no adverse effect was seen – with mouse [3] was < 1120 mg/kg/day; in the series on mouse [4], 1800 mg/kg/day; with rat [5] (setting [22]), 375 mg/kg/day; in the series on rat [6] (systemic / pathology microscopic / kidney / hyperplasia + systemic / pathology microscopic / kidney / mineralization) it was 750 mg/kg/day.
Regarding `CC1(C)C(C(=O)OC(C#N)c2cccc(Oc3ccccc3)c2)C1(C)C` (stereo not given) [Fenpropathrin], the LEL in the series on mouse [7] came out at 65.2 mg/kg/day; in the series on dog [8] (systemic / in life observation / clinical signs / tremors + systemic / clinical chemistry / glucose / glucose) it was 6.25 mg/kg/day; with rat [9] (systemic / clinical chemistry / urea nitrogen / urea), 5 mg/kg/day; with dog [10], 6.25 mg/kg/day; in the series on rat [11], 27 mg/kg/day. The LOAEL with mouse [7] is > 65.2 mg/kg/day; in the series with dog [8] (systemic / in life observation / clinical signs / tremors), 6.25 mg/kg/day; with rat [9] (systemic / clinical chemistry / alkaline phosphatase (alp/alk) / alkaline phosphatase (alp/alk) + systemic / hematology / blood clotting / …) it was 30 mg/kg/day; with dog [10] it was 6.25 mg/kg/day; in the series on rat [11], 27 mg/kg/day. Also, the NEL in the series with mouse [7] is 16.2 mg/kg/day; with dog [8] (setting [25]), 2.5 mg/kg/day; in the series on rat [9] (setting [26]), 1.5 mg/kg/day; in the series with dog [10], < 6.25 mg/kg/day; with rat [11], 13 mg/kg/day. Besides, the NOAEL with mouse [7] was ≥ 65.2 mg/kg/day; in the series on dog [8] (setting [25]), 2.5 mg/kg/day; in the series on rat [9] (setting [26]), 15 mg/kg/day; in the series on dog [10], < 6.25 mg/kg/day; in the series with rat [11], 13 mg/kg/day.
With `CCNc1nc(Cl)nc(NC(C)(C)C)n1` [Terbuthylazine], the LOAEL with rat [12] (setting [27]) was 1.24 mg/kg/day; with rat [13] (setting [29]) it was 2.28 mg/kg/day; with mouse [14], 3.22 mg/kg/day; in the series on rat [15] (setting [31]) it was 5 mg/kg/day; in the series on rat [15] (setting [32]), 30 mg/kg/day; in the series on rat [16] (setting [34]), > 5 mg/kg/day. Also, the values for the LOAEL in the series with rat [16] (setting [35]), with rabbit and in the series on rat [17] (setting [38]) were > 5 mg/kg/day, 1 mg/kg/day and 1.6 mg/kg/day, respectively. The NOAEL in the series on rat [12] (setting [27]) was < 1.24 mg/kg/day; in the series with rat [13] (setting [29]), < 2.28 mg/kg/day; in the series with mouse [14], < 3.22 mg/kg/day; in the series with rat [15] (setting [31]), 1 mg/kg/day; in the series on rat [15] (setting [32]), 5 mg/kg/day; with rat [16] (setting [34]) it was ≥ 5 mg/kg/day. In addition, the NOAEL was ≥ 5 mg/kg/day in the series with rat [16] (setting [35]), < 1 mg/kg/day in the series with rabbit and 0.36 mg/kg/day with rat [17] (setting [37]). Also, the LEL in the series with rat [12] (setting [28]) amounted to 1.24 mg/kg/day; with rat [13] (setting [30]), 2.28 mg/kg/day; in the series on mouse [14], 3.22 mg/kg/day; in the series on rat [15] (setting [31]) it was 5 mg/kg/day; in the series on rat [15] (setting [32]), 30 mg/kg/day; with rat [16] (setting [33]) it was 2.5 mg/kg/day. Further, the values for the LEL with rat [16] (setting [36]), in the series on rabbit and in the series on rat [17] (setting [38]) were 2.5 mg/kg/day, 1 mg/kg/day and 1.6 mg/kg/day, respectively. Moreover, the NEL was < 1.24 mg/kg/day with rat [12] (setting [28]); < 2.28 mg/kg/day with rat [13] (setting [30]); < 3.22 mg/kg/day in the series on mouse [14]; 1 mg/kg/day with rat [15] (setting [31]); 5 mg/kg/day with rat [15] (setting [32]); < 2.5 mg/kg/day with rat [16] (setting [33]). Also, the NEL in the series with rat [16] (setting [36]) was < 2.5 mg/kg/day; in the series on rabbit it was < 1 mg/kg/day; in the series with rat [17] (setting [37]) it was 0.36 mg/kg/day.
